In ChEMBL document CHEMBL1201862, “PubChem BioAssay data set” (2004):
Activity calls are given as the source filed them.

Legend:
[1] = biological target: E3 ubiquitin-protein ligase Mdm2 (Homo sapiens, UniProt Q00987); assay: enhancers of MDM2-luciferase reporter signal, concentration-effect titration, project on inhibitors of MDM2 ubiquitin ligase, cellular assay, luminescent readout, 384-well plate format (AID 1394); format: functional;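 also: MDM2 E3 inhibitors raise luminescence so EC50 is for signal enhancement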
Genome polyprotein [2] = biological target: Genome polyprotein (Hepatitis C virus, UniProt Q2Q167); assay: HCV core protein dimerization inhibitors, dose response, biochemical, TR-FRET (AID 2159); set-up: species or system Hepacivirus hominis;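 also: blocks dimerization of HCV core protein measured by TR-FRET between tagged core106 pairs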
[3] = HepG2 cell cytotoxicity, dose response, cytotoxicity control, plate reader, dry powder samples (AID 1159569); format: functional, cell-based;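 also: inhibitor potency with signal falling toward the positive control level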
[4] = P. falciparum Dd2 growth inhibitors, dose response, SYBR Green, dry powder samples, set 9 (AID 1159568); format: functional, cell-based
[5] = P. falciparum Dd2 growth inhibitors, dose response, SYBR Green, cherry-picked samples (AID 1159567); format: functional, cell-based
[6] = P. falciparum 3D7-ScDHODH growth inhibitors, dose response, SYBR Green, dry powder samples (AID 1159570); format: functional, cell-based;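 also: parasite growth measured after 72 hours of compound exposure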
[7] = P. falciparum Dd2 growth inhibitors, dose response, SYBR Green, dry powder samples (AID 1159566); format: functional, cell-based;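 also: potency for growth inhibition with lower SYBR green DNA signal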
[8] = P. falciparum ATP4 D1247Y mutant growth inhibitors, dose response, NITD609-resistant line, SYBR Green, dry powder (AID 1159571); format: functional, cell-based;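 also: parasites synchronized at ring stage by sorbitol before testing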
[9] = MC4R antagonists, dose response, counter-screen for LGR2 antagonist project, cell-based, plate reader, cherry pick (AID 743444); format: functional;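 also: transfected HEK 293 cells stimulated with alpha-MSH peptide; potency of inhibitors of the alpha-MSH evoked signal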
[10] = cytotoxicity in MIN6 insulinoma cells, dose response, cytotoxicity control, cell-based, mouse insulinoma (AID 2122); format: functional;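 also: confirmatory high-throughput counterscreen run to flag cytotoxic compounds; mouse MIN-6 beta cells carrying an insulin promoter eGFP reporter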
[11] = LGR2 antagonists, dose response, cell-based, HEK293, CRE-luciferase reporter, cherry pick, set 2 (AID 743343); format: functional;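 also: transfected cells were stimulated with diluted bursicon conditioned medium after compound addition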
[12] = cytotoxicity toward NIH3T3 fibroblasts, dose response, counter-screen, cell-based, ATP luminescence, mouse fibroblasts (AID 2010); format: functional;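 also: cells exposed to compound for about 90 hours before reading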
[13] = HEK293 cell cytotoxicity, dose response, cytotoxicity control, plate reader, cherry-picked samples (AID 743446); format: functional, cell-based
[14] = Vero cell cytotoxicity, dose response, cytotoxicity control for Vif-APOBEC3G degradation inhibitor project, Vero cells (AID 1117358); format: functional; details: Human immunodeficiency virus 1, Vero
[15] = insulin promoter down-regulators in MIN6 cells, imaging, high-content screening, mouse beta cells (AID 1628); format: functional
[16] = HepG2 cell cytotoxicity, dose response, cytotoxicity control, plate reader, cherry-pick, antagonist series (AID 743416); format: functional, cell-based
[17] = inhibitors of intracellular T. cruzi replication, confirmation, NIH3T3 host cells, beta-gal luminescence (AID 2044); format: functional, cell-based;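 also: intracellular parasites grown in NIH/3T3 mouse fibroblasts as host cells; luminescent beta-galactosidase reporter signal from transgenic T. cruzi replicating inside host cells; inhibitors lower the luminescence signal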
[18] = biological target: T1, Type-1 angiotensin II receptor (Homo sapiens, UniProt P30556); assay: AT1 receptor agonists, dose response, selectivity assay for APJ receptor agonist project, cell-based, uHTS hits (AID 488865); format: functional;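 also: beta-arrestin recruitment to AT1 measured by enzyme fragment complementation luminescence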
T1 sequence (P30556 whole entry): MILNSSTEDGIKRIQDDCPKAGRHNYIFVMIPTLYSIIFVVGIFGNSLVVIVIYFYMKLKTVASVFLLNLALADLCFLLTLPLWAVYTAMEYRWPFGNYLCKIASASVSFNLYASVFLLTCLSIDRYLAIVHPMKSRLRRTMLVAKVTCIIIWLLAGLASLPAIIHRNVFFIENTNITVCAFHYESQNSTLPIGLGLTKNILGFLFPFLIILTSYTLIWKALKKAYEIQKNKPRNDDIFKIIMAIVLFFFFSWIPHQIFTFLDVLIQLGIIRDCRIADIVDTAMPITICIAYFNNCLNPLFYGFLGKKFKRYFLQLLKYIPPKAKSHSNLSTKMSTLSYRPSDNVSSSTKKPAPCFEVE

Vero [19] = assay: host cell cytotoxicity of antiviral hits, dose response, cytotoxicity control for West Nile virus antiviral project, secondary assay (AID 1650); format: functional; details: Chlorocebus sabaeus
[20] = M. tuberculosis growth inhibition, HTS (AID 449762); format: functional
[21] = M. tuberculosis H37Rv growth inhibitors, H37Rv strain (AID 1626); format: functional
[22] = biological target: T2, RNA-binding protein pos-1 (Caenorhabditis elegans, UniProt G5EF15); assay: inhibitors of POS-1/mex-3 RNA binding, dose response, biochemical, fluorescence polarization (AID 1964);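 also: purified POS-1 fused to maltose binding protein made in E. coli; potency of compounds blocking POS-1 binding to fluorescent RNA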
T2 sequence (G5EF15 whole entry): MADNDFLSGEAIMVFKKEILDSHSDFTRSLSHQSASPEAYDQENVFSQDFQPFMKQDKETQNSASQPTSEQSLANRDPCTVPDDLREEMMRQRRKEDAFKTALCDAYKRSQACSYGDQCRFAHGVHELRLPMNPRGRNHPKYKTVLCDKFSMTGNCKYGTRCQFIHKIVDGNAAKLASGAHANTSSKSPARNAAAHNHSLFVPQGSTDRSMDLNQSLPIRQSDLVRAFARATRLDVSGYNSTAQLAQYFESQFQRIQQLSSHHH

[23] = biological target: T3, Zinc finger protein mex-5 (Caenorhabditis elegans, UniProt Q9XUB2); assay: MEX-5/TCR-2 RNA interaction inhibitors, dose response, biochemical, C. elegans, fluorescence polarization (AID 1960)
T3 sequence (Q9XUB2 whole entry): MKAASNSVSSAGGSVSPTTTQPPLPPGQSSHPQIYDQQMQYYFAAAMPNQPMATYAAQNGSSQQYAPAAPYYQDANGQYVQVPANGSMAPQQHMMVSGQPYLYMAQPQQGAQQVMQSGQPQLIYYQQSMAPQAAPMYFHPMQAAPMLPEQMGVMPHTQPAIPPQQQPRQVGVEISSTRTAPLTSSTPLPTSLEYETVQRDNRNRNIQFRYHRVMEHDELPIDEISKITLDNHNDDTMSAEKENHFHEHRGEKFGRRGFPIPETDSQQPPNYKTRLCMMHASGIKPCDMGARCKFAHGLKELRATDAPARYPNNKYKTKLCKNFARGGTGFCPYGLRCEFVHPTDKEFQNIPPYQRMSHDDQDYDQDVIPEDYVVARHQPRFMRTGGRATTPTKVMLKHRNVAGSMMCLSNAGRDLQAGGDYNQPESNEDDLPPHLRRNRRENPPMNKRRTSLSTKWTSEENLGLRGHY

[24] = biological target: Heat shock protein HSP 90-alpha (Homo sapiens, UniProt P07900); assay: Luminescence-based dose response biochemical high throughput screening assay for inhibitors of the Heat Shock Protein 90 (HSP90). [Related pubchem assays: 1831 (Summary AID.), 1846 (Confirmation screen.), 1789 (Primary screen.)]
[25] = Luminescent dose response cell-based high throughput screening assay for inhibitors of the Janus kinase 2 mutant JAK2V617F. [Related pubchem assays: 1446 (Primary screen.), 1521 (Confirmation assay.), 1486 (Counter screen.)]; format: functional
NADPH oxidase 1 = NADPH oxidase 1 (Homo sapiens, UniProt Q9Y5S8); assay: Late-stage luminescence-based cell-based dose response assay to identify inhibitors of NADPH oxidase 1 (NOX1): Purchased analogs 2.; format: functional
Genome polyprotein [26] = biological target: Genome polyprotein (dengue virus type 2, UniProt P29990); assay: Dengue-2 NS5 methyltransferase inhibitors, primary screen, biochemical, confirmation dose response (AID 588689); format: functional
[27] = biological target: T4, Histone-lysine N-methyltransferase NSD2 (Homo sapiens, UniProt O96028); format: biochemical
T4 sequence (O96028 whole entry): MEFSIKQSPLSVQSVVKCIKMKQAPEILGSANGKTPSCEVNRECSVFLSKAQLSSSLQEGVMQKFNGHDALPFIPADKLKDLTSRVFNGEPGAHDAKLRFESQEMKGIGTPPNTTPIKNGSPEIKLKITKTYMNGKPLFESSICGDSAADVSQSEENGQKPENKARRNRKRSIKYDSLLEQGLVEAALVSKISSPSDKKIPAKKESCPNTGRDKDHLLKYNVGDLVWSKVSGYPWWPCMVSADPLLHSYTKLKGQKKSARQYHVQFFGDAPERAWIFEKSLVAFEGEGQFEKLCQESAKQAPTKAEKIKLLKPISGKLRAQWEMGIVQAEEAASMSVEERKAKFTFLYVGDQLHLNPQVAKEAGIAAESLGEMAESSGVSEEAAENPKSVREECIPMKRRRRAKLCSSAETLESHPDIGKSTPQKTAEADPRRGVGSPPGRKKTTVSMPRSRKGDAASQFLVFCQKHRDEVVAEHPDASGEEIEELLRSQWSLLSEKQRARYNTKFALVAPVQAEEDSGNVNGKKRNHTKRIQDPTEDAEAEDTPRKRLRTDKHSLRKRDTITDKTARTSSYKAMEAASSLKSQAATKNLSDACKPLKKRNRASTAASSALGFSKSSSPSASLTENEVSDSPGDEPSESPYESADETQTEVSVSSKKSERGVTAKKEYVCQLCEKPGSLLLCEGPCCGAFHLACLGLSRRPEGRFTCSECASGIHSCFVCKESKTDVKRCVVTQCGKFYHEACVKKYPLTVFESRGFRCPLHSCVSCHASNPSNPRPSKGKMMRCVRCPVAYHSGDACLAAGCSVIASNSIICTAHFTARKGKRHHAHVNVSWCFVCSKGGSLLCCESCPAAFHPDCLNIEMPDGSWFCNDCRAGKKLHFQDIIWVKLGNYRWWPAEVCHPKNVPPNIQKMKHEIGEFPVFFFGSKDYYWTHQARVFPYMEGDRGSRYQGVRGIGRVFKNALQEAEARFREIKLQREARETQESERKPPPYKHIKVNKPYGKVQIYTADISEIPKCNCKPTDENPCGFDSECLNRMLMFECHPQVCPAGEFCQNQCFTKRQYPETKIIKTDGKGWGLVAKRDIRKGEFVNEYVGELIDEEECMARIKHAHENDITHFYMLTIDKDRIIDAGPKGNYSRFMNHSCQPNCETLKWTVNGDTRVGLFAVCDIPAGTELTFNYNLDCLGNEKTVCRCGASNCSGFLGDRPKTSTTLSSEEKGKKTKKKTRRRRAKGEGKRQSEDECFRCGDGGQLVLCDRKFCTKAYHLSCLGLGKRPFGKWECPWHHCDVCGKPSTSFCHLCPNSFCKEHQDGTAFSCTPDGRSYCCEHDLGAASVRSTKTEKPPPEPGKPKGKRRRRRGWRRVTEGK

Vero [28] = assay: Vero cell cytotoxicity, cytotoxicity control for flavivirus capping enzyme inhibitors (AID 588742); format: functional; details: Chlorocebus sabaeus
[29] = yeast RAM network inhibitors, dose response, S. cerevisiae (AID 1307); format: functional
Nonstructural protein 1 = Nonstructural protein 1 (Influenza A virus, UniProt Q194T2); format: functional, Influenza A virus (A/California/07/2009(H1N1))
[30] = biological target: Eukaryotic translation initiation factor 4E (Mus musculus, UniProt P63073); assay: eIF4E–eIF4G protein interaction inhibitors, dose response, biochemical, TR-FRET (AID 855); format: functional;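 also: potency for disrupting eIF4E binding to eIF4GI seen as loss of FRET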
Chain of Eukaryotic translation initiation factor 4E (P63073 whole entry): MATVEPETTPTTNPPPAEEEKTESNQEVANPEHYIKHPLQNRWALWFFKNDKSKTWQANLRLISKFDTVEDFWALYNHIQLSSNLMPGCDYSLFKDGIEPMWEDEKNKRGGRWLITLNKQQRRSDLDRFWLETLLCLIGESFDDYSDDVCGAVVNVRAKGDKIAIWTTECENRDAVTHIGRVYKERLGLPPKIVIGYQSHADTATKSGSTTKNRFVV

Chain of Nonstructural protein 1 (Q194T2 whole entry): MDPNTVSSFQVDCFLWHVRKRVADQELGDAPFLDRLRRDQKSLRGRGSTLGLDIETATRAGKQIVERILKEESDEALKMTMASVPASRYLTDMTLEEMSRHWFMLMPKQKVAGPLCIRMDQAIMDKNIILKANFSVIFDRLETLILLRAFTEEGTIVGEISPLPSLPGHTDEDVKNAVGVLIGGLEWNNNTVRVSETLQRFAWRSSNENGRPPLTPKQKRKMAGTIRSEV
Chain of Genome polyprotein (dengue virus type 2, UniProt P29990) (P29990 2492-3391 limits assumed): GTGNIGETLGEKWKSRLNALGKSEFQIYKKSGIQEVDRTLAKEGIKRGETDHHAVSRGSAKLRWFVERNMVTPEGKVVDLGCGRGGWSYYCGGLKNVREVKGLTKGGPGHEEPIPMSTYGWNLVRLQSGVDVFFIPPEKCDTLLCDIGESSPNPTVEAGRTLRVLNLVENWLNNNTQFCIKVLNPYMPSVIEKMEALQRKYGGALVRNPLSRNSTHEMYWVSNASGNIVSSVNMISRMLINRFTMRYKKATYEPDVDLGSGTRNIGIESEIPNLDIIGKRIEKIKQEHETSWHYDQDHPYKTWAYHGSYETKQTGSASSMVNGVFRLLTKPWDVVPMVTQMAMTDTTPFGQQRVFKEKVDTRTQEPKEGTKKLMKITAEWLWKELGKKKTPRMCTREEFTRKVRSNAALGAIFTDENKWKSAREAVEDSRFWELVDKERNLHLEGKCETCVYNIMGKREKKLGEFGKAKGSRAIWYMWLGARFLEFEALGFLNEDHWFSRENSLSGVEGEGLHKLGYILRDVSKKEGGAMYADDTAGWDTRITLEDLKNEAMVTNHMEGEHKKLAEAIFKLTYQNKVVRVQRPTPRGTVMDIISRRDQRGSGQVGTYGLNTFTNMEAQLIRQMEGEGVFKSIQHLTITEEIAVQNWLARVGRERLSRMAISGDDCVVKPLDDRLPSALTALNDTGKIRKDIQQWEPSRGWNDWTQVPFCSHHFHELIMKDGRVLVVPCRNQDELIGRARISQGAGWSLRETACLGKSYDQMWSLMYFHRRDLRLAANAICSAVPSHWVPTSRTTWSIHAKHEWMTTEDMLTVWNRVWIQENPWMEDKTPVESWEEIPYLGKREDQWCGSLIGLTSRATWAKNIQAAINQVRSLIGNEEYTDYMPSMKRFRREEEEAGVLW
Chain of E3 ubiquitin-protein ligase Mdm2 (Q00987 whole entry): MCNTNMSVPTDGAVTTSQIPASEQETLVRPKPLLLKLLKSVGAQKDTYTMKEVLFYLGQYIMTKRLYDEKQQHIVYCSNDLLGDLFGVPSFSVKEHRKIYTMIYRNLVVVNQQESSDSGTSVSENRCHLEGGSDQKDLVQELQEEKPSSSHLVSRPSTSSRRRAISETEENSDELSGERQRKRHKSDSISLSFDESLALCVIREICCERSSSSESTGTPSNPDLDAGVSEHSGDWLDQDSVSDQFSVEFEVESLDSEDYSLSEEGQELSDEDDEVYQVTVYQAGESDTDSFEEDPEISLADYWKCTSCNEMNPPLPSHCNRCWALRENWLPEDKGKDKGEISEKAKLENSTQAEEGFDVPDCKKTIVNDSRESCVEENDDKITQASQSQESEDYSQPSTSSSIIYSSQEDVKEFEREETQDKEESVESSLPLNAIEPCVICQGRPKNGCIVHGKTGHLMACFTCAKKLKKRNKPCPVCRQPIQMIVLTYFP
Chain of NADPH oxidase 1 (Q9Y5S8 whole entry): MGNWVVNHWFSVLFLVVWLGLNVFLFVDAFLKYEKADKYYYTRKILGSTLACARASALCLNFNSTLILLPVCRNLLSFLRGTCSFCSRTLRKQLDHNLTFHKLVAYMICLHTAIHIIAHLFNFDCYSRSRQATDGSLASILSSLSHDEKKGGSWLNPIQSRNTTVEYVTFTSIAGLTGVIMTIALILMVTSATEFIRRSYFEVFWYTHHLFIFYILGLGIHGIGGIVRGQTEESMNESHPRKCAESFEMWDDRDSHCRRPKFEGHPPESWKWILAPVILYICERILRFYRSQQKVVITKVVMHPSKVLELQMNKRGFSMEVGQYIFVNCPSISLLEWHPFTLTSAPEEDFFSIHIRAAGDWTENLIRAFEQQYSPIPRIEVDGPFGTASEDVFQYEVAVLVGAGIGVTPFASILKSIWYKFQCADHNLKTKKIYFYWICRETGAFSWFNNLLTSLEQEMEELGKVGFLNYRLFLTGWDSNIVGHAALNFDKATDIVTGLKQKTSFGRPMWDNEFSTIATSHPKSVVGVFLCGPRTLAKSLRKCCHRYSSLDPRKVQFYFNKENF
Chain of Genome polyprotein (Hepatitis C virus, UniProt Q2Q167) (Q2Q167 whole entry): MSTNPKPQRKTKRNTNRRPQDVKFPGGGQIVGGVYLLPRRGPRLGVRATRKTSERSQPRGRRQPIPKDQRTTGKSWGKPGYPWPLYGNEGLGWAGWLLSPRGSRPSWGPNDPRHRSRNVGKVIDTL

CC(=O)c1ccc(OCC(O)Cn2nnc3ccccc32)cc1 (configuration not stated)
EC50 [1]: 12.7 µM (not active)

NS(=O)(=O)c1ccc(NC(=O)c2ccc(S(=O)(=O)N3CCc4ccccc43)cc2)cc1
IC50 (Genome polyprotein [2]): > 49.8 µM (not active)

CCCNC(=O)N1[C@H](C#N)[C@H](c2ccc(-c3ccccc3F)cc2)[C@@H]1CO
AC50 [3]: 1.6 µM (active)
AC50 [4]: 0.608 µM (active)
AC50 [5]: 0.522 µM (active)
AC50 [6]: 6.61 µM (active)
AC50 [7]: 0.377 µM (active)
AC50 [8]: 0.511 µM (active)

Cc1cc(C)c(Cc2c(C)nc3c(C(=O)NCc4ccco4)cnn3c2C)c(C)c1
AC50 [9]: 55.6 µM (active)
IC50 [10]: 1.42 µM (active)
AC50 [11]: 19.9 µM (active)
EC50 [12]: > 60 µM (not active)
AC50 [13]: 50 µM (active)
CC50 [14]: > 40 µM (active)
IC50 [15]: 1.51 µM (active)
AC50 [16]: 32.9 µM (active)
EC50 [17]: 2.67 µM (active)

CCOC(=O)N1CCN(S(=O)(=O)c2ccc(C(=O)N(CCCN(C)C)c3nc4ccc(Cl)cc4s3)cc2)CC1
EC50 [18]: > 100 µM (inactive)
CC50 (Vero [19]): 10.1 µM (active)

CCOC(=O)N1CCN=C1SCc1ccc(C(F)(F)F)cc1
IC50 [20]: > 100 µM (active)
IC50 [21]: > 100 µM (active)

O=c1oc2ccc(Cl)cc2nc1/C=C(\O)c1ccco1
EC50 [22]: > 300 µM (not active)
EC50 [23]: > 300 µM (not active)
IC50 [24]: 2.73 µM (active)
IC50 [25]: 1.5 µM (active)

CC(=O)Nc1ccc(CC(=O)Nc2ccc(Oc3ccc(Br)cc3)cc2)cc1
IC50 (NADPH oxidase 1): > 17 µM (not active)

Cc1cc(C)c(Nc2cc(S(=O)(=O)O)c(N)c3c2C(=O)c2ccccc2C3=O)c(C)c1 [ACID BLUE 129]
IC50 (Genome polyprotein [26]): 21.5 µM (active)
AC50 [27]: 3.75 µM (active)
CC50 (Vero [28]): > 40 µM (active)
IC50 [29]: 139 µM (active)
IC50 (Nonstructural protein 1): 3.96 µM (active)
IC50 [30]: 26.1 µM (inactive)
